Values of other authors as cited in patent publication US12194073B1, “Method of arthropod egress” (priority 2023, dated 2025).
Where two headings read alike, the source gives them in different places.

Key:
[1] = for shelf stability at ambient temperature: suspension in vegetable oils, glycerol, mineral oil and white petrolatum
[2] = for ocular adverse effects: suspension in vegetable oils, glycerol, mineral oil and white petrolatum
[3] = for therapeutic effect: suspension in vegetable oils, glycerol, mineral oil and white petrolatum
[4] = for drug payload: solution in squalane, with/without mineral oil
[5] = not given; remark: listed apart in the source
[6] = squalane, with/without mineral oil, as vehicle
[7] = solution in SFA (F4H5)
[8] = self-emulsifying system; corn oil, PEG-6 esters, Tween 80 and Transcutol
Demodex folliculorum = conditions: all three concentrations; in vitro; vs 5% permethrin
[9] = not given; remark: listed apart in the source
[10] = solution in DMSO and castor oil
[11] = self-emulsifying system, Capmul MCM, Cremophor RH 40, Transcutol and hydroxypropylmethyl cellulose
[12] = self-emulsifying system, S-protected thiolated Eudragit L100-55-BAK ion pair, Labrafil M 1944CS
[13] = suspension in sesame seed oil vs high-dose viscous aqueous formulation
[14] = self-emulsifying system, corn oil, PEG-6 esters, Tween 80 and Transcutol
[15] = oleogel, soyabean oil, beeswax and gelator

Q: For O=C(O)c1cccc(-c2noc(-c3ccccc3F)n2)c1 [Ataluren], which Sterility [1, 10] is on record?
A: The Sterility was “Sterility maintained and drug degradation”.

Q: What about the drug degradation [1, 10] of the same compound?
A: Its drug degradation is “inhibited; no penetration studies performed”.

Q: Which results are given for CC[C@H]1OC(=O)[C@H](C)[C@@H](O[C@H]2C[C@@](C)(OC)[C@@H](O)[C@H](C)O2)[C@H](C)[C@@H](O[C@@H]2O[C@H](C)C[C@H](N(C)C)[C@H]2O)[C@](C)(O)C[C@@H](C)CN(C)[C@H](C)[C@@H](O)[C@]1(C)O [Azithromycin]?
A: adverse events (if any) in clinical trials ([2]; Azyter, solution in MCT): mild to moderate; tolerability ([2]; Azyter, solution in MCT): well tolerated

Q: For Clc1ccc(COC(Cn2ccnc2)c2ccc(Cl)cc2Cl)cc1 (stereo not drawn) [Econazole nitrate], which onset of action [3, 11] is on record?
A: The onset of action was “faster”.

Q: And the penetration [11]?
A: The penetration was “Enhanced”.

Q: What about the “in vitro release profile” value [4, 12] of the same compound?
A: The value was “good in vitro release profile; no in vivo studies”.

Q: And the mucoadhesion [4, 12]?
A: Its mucoadhesion is “Mucoadhesive”.

Q: And the “sustained drug release over” value [4, 12]?
A: The value was 8 h.

Q: What about the “in vitro and in vivo safety” value [2, 11] of the same compound?
A: Its value is “acceptable in vitro and in vivo safety”.

Q: For C[C@]12CCC(=O)C=C1CC[C@@H]1[C@@H]2[C@@H](O)C[C@@]2(C)[C@H]1CC[C@]2(O)C(=O)CO [Hydrocortisone], which drug payload [4] is on record?
A: The drug payload was “high drug payload; potential to reduce dosing”.

Q: Which Clinical efficacy ([3]; solution in SFA (F4H5, F6H8) at relatively lower dose vs marketed aqueous eyedrops) does the source give for CC(C)OC(=O)CCC/C=C\C[C@@H]1[C@@H](CC[C@@H](O)CCc2ccccc2)[C@H](O)C[C@@H]1O [Latanoprost] here?
A: The Clinical efficacy was “Clinical efficacy comparable to marketed aqueous”.

Q: And the bioavailability (solution in SFA (F4H5, F6H8))?
A: The bioavailability was “eyedrops at relatively lower dose; improved”.

Q: With CNC[C@H](O)c1cccc(O)c1 [Phenylephrine] as the compound, how does the onset of action [3, 13] read?
A: The onset of action was “Faster”.

Q: And the therapeutic response [3, 13]?
A: The therapeutic response was “higher”.

Q: For CC[C@@H]1C(=O)OC[C@@H]1Cc1cncn1C [Pilocarpine], which “shelf stability at ambient temperature” value [1] is on record?
A: The value was “adverse effects; improved shelf stability at ambient”.

Q: What about the therapeutic effect [3] of the same compound?
A: Its therapeutic effect is “Improved”.

Q: And the ocular adverse effects [2]?
A: Its ocular adverse effects is “reduced”.

Q: Which drug payload [4] does the source give for CC[C@@H]1/C=C(\C)C[C@H](C)C[C@H](OC)[C@H]2O[C@@](O)(C(=O)C(=O)N3CCCC[C@H]3C(=O)O[C@H](/C(C)=C/[C@@H]3CC[C@H](Cl)[C@H](OC)C3)[C@H](C)[C@@H](O)CC1=O)[C@H](C)C[C@@H]2OC [Pimecrolimus] here?
A: Its drug payload is “high drug payload; potential to reduce dosing”.

Q: What about the safety ([5]; dog, in vivo) of the same compound?
A: The safety was “Better”.

Q: And the clinical outcomes ([5]; solution in corn oil vs ointments, dogs with DED)?
A: Its clinical outcomes is “Better clinical outcomes”.

Q: Which results are given for C[C@]12C=CC(=O)C=C1CC[C@@H]1[C@@H]2[C@@H](O)C[C@@]2(C)[C@H]1CC[C@]2(O)C(=O)CO [Prednisolone]?
A: precorneal drainage (self-emulsifying system, linoleic acid, Cremophor RH 40 and propylene glycol): reduced; drug payload [4]: high drug payload; potential to reduce dosing

Q: Which “symptomatic relief in DED (vehicle)” value [6] does the source give for CC(C)CCCC(C)CCCC(C)CCCCC(C)CCCC(C)CCCC(C)C (stereo not drawn) [Squalane] here?
A: The value was “Vehicle beneficial for symptomatic relief in DED;”.

Q: With C=CC[C@@H]1/C=C(\C)C[C@H](C)C[C@H](OC)[C@H]2O[C@@](O)(C(=O)C(=O)N3CCCC[C@H]3C(=O)O[C@H](/C(C)=C/[C@@H]3CC[C@@H](O)[C@H](OC)C3)[C@H](C)[C@@H](O)CC1=O)[C@H](C)C[C@@H]2OC [Tacrolimus] as the compound, how does the intraocular penetration (solution in SFA (F4H5) vs aqueous suspension) read?
A: Its intraocular penetration is “greater intraocular penetration than aqueous”.

Q: And the “clinical signs of uveitis” value [7]?
A: The value was “Significant improvement in clinical signs of uveitis;”.

Q: With CC(C)N1CCN(c2ccc(OCC3COC(Cn4cncn4)(c4ccc(Cl)cc4Cl)O3)cc2)CC1 (stereo not drawn) [Terconazole] as the compound, how does the drug stability [1, 14] read?
A: Its drug stability is “Improved”.

Q: And the drug release [4, 14]?
A: The drug release was “rapid”.

Q: And the “conjunctival irritation in vitro” value [8]?
A: The value was “no”.

Q: Which results are given for CN[C@H](CC(C)C)C(=O)N[C@H]1C(=O)N[C@@H](CC(N)=O)C(=O)N[C@H]2C(=O)N[C@H]3C(=O)N[C@H](C(=O)N[C@H](C(=O)O)c4cc(O)cc(O)c4-c4cc3ccc4O)[C@H](O)c3ccc(c(Cl)c3)Oc3cc2cc(c3O[C@@H]2O[C@H](CO)[C@@H](O)[C@H](O)[C@H]2O[C@H]2C[C@](C)(N)[C@H](O)[C@H](C)O2)Oc2ccc(cc2Cl)[C@H]1O [Vancomycin]?
A: drug release [4, 15]: Extended; release profile and oleogel texture [4, 15]: customisable

Q: With O=C(O)CCCCCCCC(=O)O [azelaic acid] as the compound, how does the anti-Demodex efficacy (Demodex folliculorum) read?
A: Its anti-Demodex efficacy is “comparable to that of 5% permethrin”.

Q: For O=C(O)c1cn(C2CC2)c2cc(N3CCNCC3)c(F)cc2c1=O [ciprofloxacin], which drug payload [4] is on record?
A: Its drug payload is “high drug payload; potential to reduce dosing”.

Q: What does the source list for Cc1ccccc1N1CCN(CCc2nnc3n2CCCC3)CC1 [dapiprazole]?
A: shelf stability at ambient temperature [1]: adverse effects; improved shelf stability at ambient; therapeutic effect [3]: Improved; ocular adverse effects [2]: reduced

Q: With C[C@]12C=CC(=O)C=C1CC[C@H]1[C@@H]3C[C@@H](O)[C@](O)(C(=O)CO)[C@@]3(C)C[C@H](O)[C@@]12F [triamcinolone] as the compound, how does the drug release [4, 15] read?
A: Its drug release is “Extended”.

Q: And the “release profile and oleogel texture” value [4, 15]?
A: The value was “customisable”.

Q: For ivermectin, which “solubility among the oils tested” value [9] is on record?
A: The value was “highest solubility in tea tree oil followed by ethylbutanoate”.
